Experimental data as given in US20220228120A1, “Cardiomyocyte Compositions and Use Thereof” (UNIVERSITY HEALTH NETWORK, priority 2019, published 2022).

Tests used:
Format in all cases: cell-based, human
[1] = system: CD36^+SIRPA^+ compact cardiomyocytes; test: Flow cytometric analyses of CD36 and SIRPA expression
Experimental: The EBs were dissociated by incubation in Collagenase type 2 (0.5 mg/ml, Worthington) in HANKs buffer overnight at room temperature followed by TrypLE™ for 5 mins at 37° C. The following antibodies were used for staining: anti-SIRPa-PeCy7 (Biolegend, 1:1000), anti-CD36-FITC (BD PharMingen™, 1:200), anti-LDLR-BV421 (BD PharMingen™, 1:100), anti-cardiac isoform of cTNT (ThermoFisher Scientific, 1:2000), or anti-myosin light chain 2 (Abcam,1:1000). For unconjugated primary antibodies, the following secondary antibodies were used for detection: goat anti-mouse IgG-APC (BD PharMingen™, 1:500), or donkey anti-rabbit IgG-PE (Jackson ImmunoResearch, 1:500). Detailed antibody information is described in the Key Resources Table. […] Stained cells were analyzed using the LSR II Flow cytometer (BD PharMingen™). Data were analyzed using FlowJo™ software (Tree Star).
To evaluate the capacity of the day 18 compact cardiomyocytes to undergo FAO, we analyzed them for expression of the fatty acid transporter CD36, which is essential for transporting fatty acid into cells (FIG. 2B). Given that most mature cardiomyocytes in the human heart express CD36, flow cytometric analyses of this transporter would provide rapid quantitative measure of the maturation status of these cells.

[2] = system: compact ventricular populations; test: cTNT and Ki67 flow cytometry after 2 days XAV (day 18)
Experimental: The EBs were dissociated by incubation in Collagenase type 2 (0.5 mg/ml, Worthington) in HANKs buffer overnight at room temperature followed by TrypLE™ for 5 mins at 37° C. The following antibodies were used for staining: anti-SIRPa-PeCy7 (Biolegend, 1:1000), anti-CD36-FITC (BD PharMingen™, 1:200), anti-LDLR-BV421 (BD PharMingen™, 1:100), anti-cardiac isoform of cTNT (ThermoFisher Scientific, 1:2000), or anti-myosin light chain 2 (Abcam,1:1000). For unconjugated primary antibodies, the following secondary antibodies were used for detection: goat anti-mouse IgG-APC (BD PharMingen™, 1:500), or donkey anti-rabbit IgG-PE (Jackson ImmunoResearch, 1:500). Detailed antibody information is described in the Key Resources Table. For cell-surface marker analyses, cells were stained for 30 min at 4° C. in FACS buffer consisting of PBS with 5% fetal calf serum (FCS) (Wisent) and 0.02% sodium azide. For intracellular staining, cells were fixed for 20 mins at 4° C. with 4% PFA in PBS followed by permeabilization using 90% methanol for 20 mins at 4° C. Cells were washed with PBS containing 0.5% BSA (Sigma) and stained with unconjugated primary antibodies in FACS buffer overnight at 4° C. Stained cells were washed with PBS with 0.5% BSA and stained with secondary antibodies in FACS buffer for 30 mins at 4° C. Stained cells were analyzed using the LSR II Flow cytometer (BD PharMingen™). Data were analyzed using FlowJo™ software (Tree Star).
The EBs were dissociated as described above. The following antibodies were used for staining: mouse anti-Ki67 (DAKO, 1:100) and rabbit anti-cardiac isoform of cTNT (ThermoFisher Scientific, 1:500). The following secondary antibodies were used for detection: donkey anti-mouse IgG-APC (BD Pharmigen™, 1:500), or donkey anti-rabbit IgG-PE (Jackson ImmunoResearch, 1:500). Detailed antibody information is described in the Key Resources Table. […] Stained cells were analyzed using the LSR II Flow cytometer (BD PharMingen™). Data were analyzed using FlowJo™ software (Tree Star). […]

[3] = system: hPSC-derived ventricular cardiomyocytes; test: Cardiomyocyte proliferation/expansion, factors added day 10 to day 16; settings: CHIR 1 μM or IGF2 25 ng/ml
Experimental: The EBs were dissociated as described above. The following antibodies were used for staining: mouse anti-Ki67 (DAKO, 1:100) and rabbit anti-cardiac isoform of cTNT (ThermoFisher Scientific, 1:500). The following secondary antibodies were used for detection: donkey anti-mouse IgG-APC (BD Pharmigen™, 1:500), or donkey anti-rabbit IgG-PE (Jackson ImmunoResearch, 1:500). Detailed antibody information is described in the Key Resources Table. Cells were fixed for 20 mins at 4 C with 4% PFA in PBS followed by permeabilization using 90% methanol for 20 mins at 4° C. Cells were washed with PBS containing 0.5% BSA (Sigma) and stained with unconjugated primary antibodies in FACS buffer overnight at 4° C. Stained cells were washed with PBS with 0.5% BSA and stained with secondary antibodies in FACS buffer for 30 mins at 4° C. Stained cells were analyzed using the LSR II Flow cytometer (BD PharMingen™). Data were analyzed using FlowJo™ software (Tree Star). At day 5, the EBs were transferred to StemPro™-34 with rhVEGF (5 ng/ml) for another 5 days and then to DMEM high glucose (Life Technologies) with 0.5 mg/mL human serum albumin (Sigma), ascorbic acid, transferrin, insulin (10 ng/ml, Sigma), CHIR (1 μM, Bio-Techne), and IGF2 (25 ng/ml, Bio-Techne) from day 10 to day 16. […] The cells were then harvested, counted, and analyzed for expression of compact and trabecular genes by RT-qPCR. […]

[4] = system: HEY2, MYCN, ANF, BMP10 expression; test: RT-qPCR of compact and trabecular markers after 6 days with factors; settings: factors day 10-16
Experimental: (§1) Total RNA from samples was isolated using RNAqueous™-micro Kit including RNase-free DNase treatment (invitrogen). RNA from dissected ventricular and atrial tissue of human fetal hearts was isolated using the TRIzol® method (ThermoFisher) and treated with DNase (Ambion®). Isolated RNA was reverse transcribed into cDNA using oligo (dT) primers and random hexamers and iScript™ Reverse Transcriptase (ThermoFisher). QRT-PCR was performed on an EP Real-Plex MasterCycler® (Eppendorf®) using QuantiFast® SYBR Green PCR kit (QIAGEN). The copy number of each gene relative to the house keeping gene TBP.
For these studies, we used our previously published protocol to generate cardiomyocytes (Lee, supra). […] Using this timeframe as an indication of the proliferative stage of ventricular development, between days 10 and 16 of differentiation, we added the small molecule GSK-3 inhibitor CHIR-99021 (“CHIR”; a WNT pathway agonist), or IGF2, or both, to the day 10 cell population (FIG. 1D). As a control, we added neuregulin 1 (NRG) to the cultures as it promotes the development of the trabecular myocardium in the developing heart (see, e.g., Del Monte-Nieto et al., Nature (2018) 557(7705):439-45; and Odiete et al., Circ Res. (2012) 111(10):1376-85). The cells were cultured with these factors for 6 days. The cells were then harvested, counted, and analyzed for expression of compact and trabecular genes by RT-qPCR. […] The addition of both factors promoted the greatest expansion in cell number, resulting in a 2-fold increase. […] It had little effect on HEY2, which was already expressed at reasonable levels within the population. IGF2 signaling had no effect on the expression of these genes. Addition of NRG reduced the expression of HEY2 and increased the expression of ANF, indicative of specification of a trabecular fate.

FAO-related genes = test: RT-qPCR of FAO-related, mitochondrial and maturation genes in day 32 compact cardiomyocytes
Experimental: as §1

[5] = system: hPSC-derived ventricular cardiomyocytes; test: HEY2/ANF immunostaining of day 16 ventricular population; settings: day 16 population
Experimental: The EBs were dissociated as described above and the cells were plated onto 24 well culture dishes pre-coated with Matrigel™ (25% v/v, BD PharMingen™). Cells were cultured for 2-3 days and were fixed with 4% PFA in PBS for 15 min at room temperature. Cells were permeabilized and blocked with PBS containing 5% donkey serum, 0.1% TritonX™. The following antibodies were used for staining: mouse anti-cardiac isoform of cTNT (ThermoFisher Scientific, 1:200), rabbit anti-human HEY2 (Proteintech, 1:100), mouse anti-human ANF (Abcam, 1:100), rabbit anti-human cTNT (Abcam, 1:200), or rabbit anti-human CD90 (Abcam, 1:200). For detecting unconjugated primary antibodies, the following secondary antibodies were used: donkey anti-mouse IgG-Alexa Fluor™ 488 (ThermoFisher, 1:500), donkey anti-rabbit IgG-Alexa Fluor™ 555 (ThermoFisher, 1:500), donkey anti-rabbit IgG-Alexa488 (ThermoFisher, 1:500), donkey anti-mouse IgG-Alexa Fluor™ 555 (ThermoFisher, 1:500). Detailed antibody information is described in the Key Resources Table. Cells were stained with primary antibodies in staining buffer consisting of PBS with 0.1% TritonX, and 5% donkey serum overnight at 4° C. The stained cells were washed with PBS. […] Stained cells were analyzed using an EVOS Microscope (ThermoFisher) and Zeiss LSM700 confocal microscope (Zeiss).

`N[C@@H](Cc1cc(I)c(Oc2ccc(O)c(I)c2)c(I)c1)C(=O)O` [thyroid hormone (T3), triiodothyronine] was tested, and the “effect on CD36 expression among other pathways tested” value ([1]; only observed in the presence of PPARα signaling) was “largest effect”.
For `O=c1[nH]c(-c2ccc(C(F)(F)F)cc2)nc2c1CSCC2` [XAV, 2-(4-(trifluoromethyl)phenyl)-7,8-dihydro-5H-thiopyrano[4,3-d]pyrimidin-4-ol], the “proportion of Ki67^+ cells in the population” value ([2]; XAV following the CHIR/IGF2-induced proliferative stage) was “significantly reduced” and the “proportion of the non-cardiomyocytes” value ([2]; XAV for 2 days after CHIR/IGF2) was “reduction”.
With `Cc1c[nH]c(-c2cnc(NCCNc3ccc(C#N)cn3)nc2-c2ccc(Cl)cc2Cl)n1` [CHIR, 6-((2-((4-(2,4-Dichlorophenyl)-5-(4-methyl-1H-imidazol-2-yl)pyrimidin-2-yl)amino)ethyl)amino)nicotinonitrile] the “proportion of cTNT^+ cells in the population” value ([2]; XAV(−) vs. ventricular control, day 18) was “reduction”, the “proportion of Ki67^−cTNT^+ cardiomyocytes detected at day 16” value [3] was “significant increase” and the “expression of ANF” value [4] was “decrease”. For the same compound, the “expression of BMP10” value [4] was “decrease”, the “expression of HEY2” value [4] was “little effect” and the “expression of MYCN” value [4] was “significant increase”. The “expression of the fatty acid transporter CD36” value [4] was “reduced” and the “expression of the glucose transporter GLUT1” value [4] was “increased”.
`CCCCCCCCCCCCCCCC(=O)O` [palmitate] was tested, and the “expression of mitochondrial/electron transport chain genes ATP5A1, COX7A1, CKMT2” value (FAO-related genes) was “no effect”, the “expression of FAO pathway components CD36, FABP3, CPT1B, MLYCD” value (FAO-related genes; vs untreated populations) was “no effect” and the “level of ACC2” value (FAO-related genes; vs untreated populations) was “no effect”.
In the case of `CC(C)(Sc1ccc(CCN(CCCCC2CCCCC2)C(=O)NC2CCCCC2)cc1)C(=O)O` [GW7647], the “size of CD36+ population detected at day 32” value ([1]; 1 μM added to day 18 CMs) is reported as “significant increase”.
neuregulin 1 [NRG] was tested, and the “ANF+ cells by immunostaining” value [5] was “presence”, the “HEY+ compact cells by immunostaining” value [5] was “lack” and the “expression of ANF” value [4] was “increased”. The “expression of HEY2” value [4] was “reduced”.
With insulin-like growth factor 2 [IGF2] the “proportion of Ki67^−cTNT^+ cardiomyocytes detected at day 16” value [3] was “significant increase”, the “expression of ANF” value [4] was “no effect” and the “expression of BMP10” value [4] was “no effect”. The “expression of HEY2” value [4] was “no effect” and the “expression of MYCN” value [4] was “no effect”.
